Assay results published in patent US7005297B2, “Use of neuroactive compounds” (Council of Scientific and Industrial Research, priority 2003, dated 2006).
Marks after values point to notes of the source that are not given here.

Key:
Drosophila melanogaster [1] = assay: negative geotaxis assay, height climbed by individual flies; type: in vivo
Description: (§1) Unless otherwise mentioned, standard methods of fly manipulation were followed. Standard fly medium consisting of agar-agar, maize powder, brown sugar, dried yeast and nipagin was used. Flies were cultured at 22±1° C., 60% RH, and 12 hrs light (9 AM to 9 PM) and 12 hours dark cycle. D. melanogaster wild type Oregon-R strain was used in the experiment. To obtain males for control and drug treatment, flies from identical cultures grown in glass vials were first allowed to lay eggs in milk bottles containing medium. Flies were shifted to fresh bottles every 12 hr. First 4 sets of bottles were discarded. Flies that emerged in subsequent bottles were only used. Those that emerged in the beginning were first discarded and then flies were collected twice at 12 hr interval. Flies collected each time were kept separately in a single bottle. Two days after first collection, males and females from both the bottles were separated. Males were then pooled together and shifted to a new bottle. Flies were used for control or drug treatment two days later.
Following morning after pooling males for treatment, drugs (Sigma-Aldrich Co, St. Louis, U.S.A.) were first dissolved in distilled water at following concentration: 33.3 mg/ml of strychnine (STR), 40 mg/ml of pentylenetetrazol (PTZ), 20 mg/ml of tetraethylammonium chloride (TEA), 10 mg/ml of lithium […] (LICA) and 2 mg/ml of nicotine (NICO). Appropriate volume of freshly made drug solutions were then poured in molten fly media, and mixed thoroughly, to achieve a final concentration of 3.33 mg/ml of STR, 4 mg/ml of PTZ, 2 mg/ml of TEA, 1 mg/ml of LICA, and 0.2 mg/ml of NICO. For control, i.e., normal food (NF), distilled water of same volume as drug solution was added in the medium and mixed. Following this, the molten media was dispensed in glass vials, stored overnight at 4° C. and then used for above treatment of flies. Thirty male flies were shifted to each of the […] treatment vials, NF, STR, PTZ, TEA, LICA and NICO. Flies were maintained at 22±1° C., 60% RH, and 12 hrs light (9 AM to 9 PM) and 12 hours dark cycle.
On 22nd day of the beginning of drug treatment, three males from each treatment were separately mated to a single virgin female each. The females were grown on NF and were never exposed to any drug at any time. The F1 progenies resulting from each pair mating were pooled together before being further used. F2 generation was obtained through mating in mass the F1 progenies. F1 to F2 flies were never exposed to any drug at any time.
Negative geotaxis assays for measuring height climbed and climbing speed, and horizontal locomotion assay for measuring distance walked—were performed at room temperature, between 9 AM to 9 PM. They were all performed at a specified area in a room, where same light sources were always used. While measuring various locomotor activities, extreme care was taken to ensure that the room is quiet, and the table onto which assays were performed undisturbed and vibration free. Utmost care was taken to ensure identical handling of flies, in minutest details. For measuring height climbed, climbing speed and distance walked, a single fly was randomly selected at a time. This was achieved by first inverting flies from a given treatment vial into an empty vial and then continuously and gently shaking and inverting both the vials in such a way that a single fly is finally trapped in the empty vial. Once trapped, all the three locomotor activities were measured using the same fly, height climbed, climbing speed and distance walked, in that order. One fly each from NF, STR, PTZ, PILO, TEA, LICA, and ESD, selected randomly, was first scored and then the same exercise was repeated for another two flies. Once a fly was scored for all the three locomotor activities, it was discarded. Flies were particularly checked for intact legs and wings, before they were used in negative geotaxis and horizontal locomotion assays.

Drosophila melanogaster [2] = details: F1 male and female progeny of drug-fed fathers, routine examination over 30 days
Description: as §1
Following morning after pooling males for treatment, drugs (Sigma-Aldrich Co, St. Louis, U.S.A.) were first dissolved in distilled water at following concentration: 33.3 mg/ml of strychnine (STR), 40 mg/ml of pentylenetetrazol (PTZ), 20 mg/ml of tetraethylammonium chloride (TEA), 10 mg/ml of lithium chloride (LICA) and 2 mg/ml of nicotine (NICO). […]

[3] = drug exposed parent males, day 13 of treatment
[4] = F1 males never exposed to drug, fathers drug-fed, assayed on 31st day of emergence, n=30, NF control 25.1
[5] = F2 females (second batch) never exposed to drug, grandfathers drug-fed, 8th day of emergence, n=30, NF control 21.3
[6] = drug-fed parent males, day 13 of treatment, drug in fly medium (STR 3.33, PTZ 4, TEA 2, LICA 1, NICO 0.2 mg/ml), n=30, NF control 20.86, asterisks = t-test vs NF (*5%, **1%, ***0.1%)

C1CCc2nnnn2CC1 [PTZ, pentylenetetrazol]
change in height climbed compared to normal food (NF) (Drosophila melanogaster [1]; [3]): increase in the height climbed

CC[N+](CC)(CC)CC.[Cl-] [TEA, tetraethylammonium chloride]
Height climbed by flies, Mean (F1) (Drosophila melanogaster [1]; [4]): 12.43*** cm | Height climbed by flies, Mean (F2) (Drosophila melanogaster [1]; [5]): 29.46*** cm | change in height climbed compared to normal food (NF) (Drosophila melanogaster [1]; [3]): increase in the height climbed | Height climbed by flies, Mean (Parents) (Drosophila melanogaster [1]; [6]): 32.4*** cm

O=C([O-])[O-].[Li+].[Li+] [LICA, lithium carbonate]
Height climbed by flies, Mean (F1) (Drosophila melanogaster [1]; [4]): 17.7*** cm | Height climbed by flies, Mean (F2) (Drosophila melanogaster [1]; [5]): 27.53** cm | change in height climbed compared to normal food (NF) (Drosophila melanogaster [1]; [3]): increase in the height climbed | Height climbed by flies, Mean (Parents) (Drosophila melanogaster [1]; [6]): 32.96*** cm

CN1CCCC1c1cccnc1 (centres unmarked) [NICO, nicotine]
Height climbed by flies, Mean (F1) (Drosophila melanogaster [1]; in vivo): 10.86*** cm | Height climbed by flies, Mean (F2) (Drosophila melanogaster [1]; in vivo): 29.36*** cm | Height climbed by flies, Mean (Parents) (Drosophila melanogaster [1]; in vivo): 32.16*** cm | change in height climbed compared to normal food (NF) (Drosophila melanogaster [1]; in vivo): increase in the height climbed | gross locomotor activity compared to control (Drosophila melanogaster [2]): climbed very slowly

O=C1C[C@@H]2OCC=C3CN4CC[C@]56c7ccccc7N1[C@H]5[C@H]2[C@H]3C[C@H]46 [STR, strychnine]
Height climbed by flies, Mean (F1) (Drosophila melanogaster [1]; [4]): 16.56*** cm | Height climbed by flies, Mean (F2) (Drosophila melanogaster [1]; [5]): 29.83*** cm | Height climbed by flies, Mean (Parents) (Drosophila melanogaster [1]; [6]): 28** cm
